These are literature values, as cited in patent publication US12103916B2, “Antifungal compounds” (University of Kentucky Research Foundation, priority 2016, dated 2024).

Marks after values point to notes of the source that are not given here.

This data set deals with Aspergillus nidulans ATCC 38163. As to conditions: Table 1; strain L; control azoles; previously reported (refs 5, 16); cited from earlier work.

On to `C[C@@H](c1ncncc1F)[C@](O)(Cn1cncn1)c1ccc(F)cc1F` [VOR, voriconazole], for which the “MIC (MIC-2)” value is recorded as 0.03^c μg/mL.
